From patent US9439976B2, “Compositions and methods for using cathepsin E cleavable substrates” (The Methodist Hospital System, priority 2013, dated 2016)
Where a SMILES comes first, the peptide text is derived from it. The star is where a group is joined. X1 = O=C(O)CCC(=O)CN*

Experiments:
MPanc96-CTSE cells [1] = assay type: cell-based; settings: human
Protocol: To determine the number of viable cells after light treatment, a homogeneous colorimetric method, the MTS Cell cytotoxicity assay (Cell Titer 96® Aqueous, Promega, Madison, Wis.) was used. MPanc96-CTSE and MPanc96-FG30 (2×10^4) cells were incubated with various concentrations (0.1, 0.5, 1, and 5 μM) of the 5-ALA prodrug for 30 minutes, followed by treatment with a range of light doses (2.5, 5, 10, and 15 J/cm^2) and incubated overnight at 37° C. and 5% CO2 in 96-well plates. Cells treated only with light or the 5-ALA prodrug were used as negative controls. […] The formation of colored formazan was measured directly in 96-well assay plates at 490 nm absorbance without additional processing. […] After PDT, MPanc96-CTSE cells were washed with PBS buffer, treated with 1 μL YO-PRO-1 and PI stock solution per milliliter medium and incubated on ice for 25 minutes, followed by fluorescence imaging using an inverted epifluorescence microscope. […]
To quantitate cell viability upon photodynamic treatment with the 5-ALA prodrug, PDAC cells were subjected to homogeneous, colorimetric MTS cytotoxicity assay. […] After incubating PDAC cells with the tetrazolium compound, living PDAC cells in culture were quantified directly by measuring the absorbance of the produced formazan product at 490 nm.

[2] = tested on: PDAC (p53 conditional deletion/LSL-KrasG12D/Pdx1-Cre); assay: In vivo photodynamic therapy, TUNEL staining of PDAC pancreas in genetically engineered mice; design: species or system mouse; settings: mice with PDAC, 1 mg 5-ALA equivalent/kg i.v., 10 J/cm^2 light at 652 nm 1 hour after injection, tissue 24 hours later
Protocol: All animal studies were performed in compliance with the approved animal protocols and guidelines of Institutional Animal Care and Use Committee of University of Texas MD Anderson Cancer Center. […] Littermates without PDAC served as controls. LSL-KRasG12D, p53-floxed, and Pdx-1-Cre genetic mice were obtained from the Mouse Models for Human Cancer Consortium Repository (Rockville, Md.). Mice were divided into three groups of five transgenic mice with PDAC tumors and three normal littermate controls. Mice were injected with a single dose of saline, free 5-ALA, or the 5-ALA prodrug (1 mg 5-ALA equivalent/kg, 50 μL) intravenously through the tail vein using a 30 gauge needle. Mice were incubated for 60 minutes in a full metabolically active environment and anesthetized by intraperitoneal injection of sodium pentobarbital, at a dose of 50-90 mg/kg diluted to 6 mg/ml. The pancreas was exposed through a left abdominal incision (1 cm, laparotomy) and treated with a 10-J/cm^2 dose of light using a diode laser (652 nm) and incidence fluence rate of 50 mW/cm^2 for 3.5 minutes. After PDT, the pancreas was carefully returned to the peritoneal cavity and the abdomen was closed. One day after light treatment, animals were sacrificed and the pancreases were harvested for subsequent evaluation. […]

MPanc96-CTSE cells [3] = assay: Cellular release of 5-ALA, PpIX fluorescence imaging, Cath E-high cells; assay type: cell-based, human; settings: unfixed MPanc96-CTSE cells, 0.5 μM, 37° C.
Protocol: Mpanc96-CTSE and Mpanc96-FG30 cells (1.2×10^4) were treated in 96-well plates with various concentrations (0.1, 0.5, 1, and 5 μM in 100 μL) of 5-ALA prodrug, incubated for 30 minutes at 37° C., and washed several times with PBS. Fluorescence images of the cells were acquired using an inverted epifluorescence microscope and a TRITC (tetramethyl rhodamine isothiocyanate) filter (λex=557 nm and λem=576 nm). Free 5-ALA and untreated cells were included as controls. The possible light damage done in the absence of photosensitizer was evaluated by irradiating Cath E-positive Mpanc96-CTSE cells with various doses (2.5, 5, 10, 15, and 18 J/cm^2) of light using a diode laser system (652 nm; B&W TEK, Newark, Del.). Phototoxicity of the 5-ALA prodrug was assessed by incubating Mpanc96-CTSE and Mpanc96-FG30 cells in 96-well plates with 0.1 μM 5-ALA prodrug for 30 minutes at 37° C. The cells were washed several times with PBS, the medium was replaced with growth medium, and the cells were treated with a single dose of 10 J/cm2. After PDT, the treated cells and controls were incubated overnight followed by imaging to detect changes in cell morphology.

| Compound | Cell viability (MTS) (MPanc96-CTSE cells [1]) | Apoptosis in PDAC tissue sections (TUNEL) [2] | PpIX fluorescence signal in cells (TRITC channel) (MPanc96-CTSE cells [3]) |
| --- | --- | --- | --- |
| CC(C)C[C@H](NC(=O)[C@H](CO)NC(=O)[C@H](Cc1ccccc1)NC(=O)CNC(=O)[C@H](C)NC(=O)[C@H](CCC(N)=O)NC(=O)[C@@H](N)CCCNC(=N)N)C(=O)NCC(=O)CCC(=O)O [5-ALA prodrug, H-Arg-Gln-Ala-Gly-Phe-Ser-Leu-5-ALA-OH] (H-RQAGFSL-X1) | approximately 20% | – | – |
| NCC(=O)CCC(=O)O [free 5-ALA, 5-aminolevulinic acid] | – | multiple apoptotic cells | comparable |
